Read-outs that look alike come from different tables or passages of the source.
Columns and labels:
Human mTOR (FLAG-TOR) = Human mTOR (FLAG-TOR) (Homo sapiens, UniProt P42345); experiment: mTOR kinase assay (DELFIA format, purified enzyme); assay type: biochemical; details: read-out: IC50 mTOR
PI3K-γ = PI3K-γ (Homo sapiens, UniProt P48736); experiment: PI3K-gamma fluorescence polarization assay
[1] = system: human prostate LNCap tumor cell line; experiment: In vitro cell culture growth assay (MTS), LNCap; details: Homo sapiens, LNCaP, 72 h, read-out: IC50 LNCap
PI3K-α = PI3K-α (Homo sapiens, UniProt P42336); experiment: PI3K-alpha fluorescence polarization assay; details: read-out: IC50 PI3Kα
Chain of PI3K-α (P42336 whole entry, species assumed): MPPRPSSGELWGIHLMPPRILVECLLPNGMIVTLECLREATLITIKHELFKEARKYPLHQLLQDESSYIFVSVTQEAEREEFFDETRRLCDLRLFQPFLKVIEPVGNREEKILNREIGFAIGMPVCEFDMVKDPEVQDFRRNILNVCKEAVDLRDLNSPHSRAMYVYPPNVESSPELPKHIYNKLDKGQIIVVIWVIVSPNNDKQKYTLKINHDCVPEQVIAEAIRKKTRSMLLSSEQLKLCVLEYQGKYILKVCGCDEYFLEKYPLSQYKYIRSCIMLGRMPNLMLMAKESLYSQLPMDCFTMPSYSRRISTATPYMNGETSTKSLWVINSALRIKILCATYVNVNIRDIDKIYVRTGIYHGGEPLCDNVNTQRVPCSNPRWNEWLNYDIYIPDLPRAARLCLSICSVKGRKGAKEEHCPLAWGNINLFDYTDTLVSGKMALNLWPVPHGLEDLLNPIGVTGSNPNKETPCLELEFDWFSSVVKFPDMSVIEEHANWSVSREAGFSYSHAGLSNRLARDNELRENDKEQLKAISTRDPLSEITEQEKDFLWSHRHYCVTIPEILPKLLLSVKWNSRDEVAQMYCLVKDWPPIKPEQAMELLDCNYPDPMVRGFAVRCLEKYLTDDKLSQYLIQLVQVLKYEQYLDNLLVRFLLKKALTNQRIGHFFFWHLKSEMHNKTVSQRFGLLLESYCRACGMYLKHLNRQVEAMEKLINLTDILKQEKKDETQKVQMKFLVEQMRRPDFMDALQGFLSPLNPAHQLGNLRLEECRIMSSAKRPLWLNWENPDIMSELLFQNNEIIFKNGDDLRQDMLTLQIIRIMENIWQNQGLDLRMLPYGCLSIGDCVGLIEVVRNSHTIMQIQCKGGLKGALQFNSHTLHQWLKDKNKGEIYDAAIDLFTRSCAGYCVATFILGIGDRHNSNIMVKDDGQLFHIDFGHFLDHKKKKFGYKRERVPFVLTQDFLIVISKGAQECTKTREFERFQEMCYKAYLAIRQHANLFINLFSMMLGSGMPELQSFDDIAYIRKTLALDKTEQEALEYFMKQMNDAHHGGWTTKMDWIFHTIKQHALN
Chain of PI3K-α (P27986 whole entry partner, species assumed): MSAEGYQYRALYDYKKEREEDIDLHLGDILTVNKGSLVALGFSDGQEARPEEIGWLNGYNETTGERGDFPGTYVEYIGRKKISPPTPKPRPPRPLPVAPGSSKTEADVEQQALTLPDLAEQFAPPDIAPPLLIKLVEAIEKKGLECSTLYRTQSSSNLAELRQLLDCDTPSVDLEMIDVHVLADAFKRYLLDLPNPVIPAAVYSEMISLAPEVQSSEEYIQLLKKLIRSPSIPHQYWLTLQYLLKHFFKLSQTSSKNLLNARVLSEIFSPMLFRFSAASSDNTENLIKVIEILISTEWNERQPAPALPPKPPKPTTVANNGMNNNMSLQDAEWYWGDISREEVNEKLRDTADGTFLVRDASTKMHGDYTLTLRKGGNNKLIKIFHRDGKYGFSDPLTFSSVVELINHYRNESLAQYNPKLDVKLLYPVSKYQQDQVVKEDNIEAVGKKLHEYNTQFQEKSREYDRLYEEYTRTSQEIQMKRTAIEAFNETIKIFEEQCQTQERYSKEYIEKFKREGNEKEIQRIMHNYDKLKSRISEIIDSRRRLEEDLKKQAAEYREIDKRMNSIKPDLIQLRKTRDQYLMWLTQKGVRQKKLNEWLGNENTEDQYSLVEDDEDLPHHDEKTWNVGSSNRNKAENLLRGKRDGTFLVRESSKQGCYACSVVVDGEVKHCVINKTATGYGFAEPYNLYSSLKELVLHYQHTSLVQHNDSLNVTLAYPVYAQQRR

Chain of Human mTOR (FLAG-TOR) (P42345 1360-2549 limits assumed): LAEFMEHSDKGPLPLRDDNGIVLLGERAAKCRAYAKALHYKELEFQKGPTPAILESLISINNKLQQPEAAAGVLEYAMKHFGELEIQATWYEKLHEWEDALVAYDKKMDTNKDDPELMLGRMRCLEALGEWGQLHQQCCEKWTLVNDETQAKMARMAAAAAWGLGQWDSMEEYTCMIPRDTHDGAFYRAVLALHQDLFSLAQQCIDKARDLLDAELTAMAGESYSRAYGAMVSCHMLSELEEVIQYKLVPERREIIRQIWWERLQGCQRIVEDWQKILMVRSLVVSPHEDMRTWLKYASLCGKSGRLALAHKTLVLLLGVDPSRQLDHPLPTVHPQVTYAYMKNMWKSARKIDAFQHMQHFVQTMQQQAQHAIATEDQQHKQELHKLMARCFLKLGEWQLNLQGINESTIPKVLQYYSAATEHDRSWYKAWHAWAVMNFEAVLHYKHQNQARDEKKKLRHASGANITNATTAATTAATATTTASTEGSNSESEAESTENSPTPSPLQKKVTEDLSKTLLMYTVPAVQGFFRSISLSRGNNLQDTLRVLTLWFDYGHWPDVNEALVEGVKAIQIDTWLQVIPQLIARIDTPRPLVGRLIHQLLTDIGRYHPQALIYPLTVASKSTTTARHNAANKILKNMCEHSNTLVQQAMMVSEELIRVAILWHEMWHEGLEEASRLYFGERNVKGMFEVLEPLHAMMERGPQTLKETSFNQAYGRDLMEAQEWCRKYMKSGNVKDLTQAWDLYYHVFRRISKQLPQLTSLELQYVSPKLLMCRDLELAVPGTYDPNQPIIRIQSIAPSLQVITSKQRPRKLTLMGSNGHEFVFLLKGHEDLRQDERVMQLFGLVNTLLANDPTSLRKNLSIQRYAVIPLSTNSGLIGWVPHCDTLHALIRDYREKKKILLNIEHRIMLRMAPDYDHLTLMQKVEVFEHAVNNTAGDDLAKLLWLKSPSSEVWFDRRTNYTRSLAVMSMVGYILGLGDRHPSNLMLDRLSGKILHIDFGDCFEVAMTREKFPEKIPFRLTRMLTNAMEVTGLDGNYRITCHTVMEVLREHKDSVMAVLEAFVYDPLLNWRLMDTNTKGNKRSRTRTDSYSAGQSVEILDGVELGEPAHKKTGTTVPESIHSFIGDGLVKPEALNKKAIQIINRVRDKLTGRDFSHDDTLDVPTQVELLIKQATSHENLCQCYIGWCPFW
Chain of PI3K-γ (P48736 whole entry, species assumed): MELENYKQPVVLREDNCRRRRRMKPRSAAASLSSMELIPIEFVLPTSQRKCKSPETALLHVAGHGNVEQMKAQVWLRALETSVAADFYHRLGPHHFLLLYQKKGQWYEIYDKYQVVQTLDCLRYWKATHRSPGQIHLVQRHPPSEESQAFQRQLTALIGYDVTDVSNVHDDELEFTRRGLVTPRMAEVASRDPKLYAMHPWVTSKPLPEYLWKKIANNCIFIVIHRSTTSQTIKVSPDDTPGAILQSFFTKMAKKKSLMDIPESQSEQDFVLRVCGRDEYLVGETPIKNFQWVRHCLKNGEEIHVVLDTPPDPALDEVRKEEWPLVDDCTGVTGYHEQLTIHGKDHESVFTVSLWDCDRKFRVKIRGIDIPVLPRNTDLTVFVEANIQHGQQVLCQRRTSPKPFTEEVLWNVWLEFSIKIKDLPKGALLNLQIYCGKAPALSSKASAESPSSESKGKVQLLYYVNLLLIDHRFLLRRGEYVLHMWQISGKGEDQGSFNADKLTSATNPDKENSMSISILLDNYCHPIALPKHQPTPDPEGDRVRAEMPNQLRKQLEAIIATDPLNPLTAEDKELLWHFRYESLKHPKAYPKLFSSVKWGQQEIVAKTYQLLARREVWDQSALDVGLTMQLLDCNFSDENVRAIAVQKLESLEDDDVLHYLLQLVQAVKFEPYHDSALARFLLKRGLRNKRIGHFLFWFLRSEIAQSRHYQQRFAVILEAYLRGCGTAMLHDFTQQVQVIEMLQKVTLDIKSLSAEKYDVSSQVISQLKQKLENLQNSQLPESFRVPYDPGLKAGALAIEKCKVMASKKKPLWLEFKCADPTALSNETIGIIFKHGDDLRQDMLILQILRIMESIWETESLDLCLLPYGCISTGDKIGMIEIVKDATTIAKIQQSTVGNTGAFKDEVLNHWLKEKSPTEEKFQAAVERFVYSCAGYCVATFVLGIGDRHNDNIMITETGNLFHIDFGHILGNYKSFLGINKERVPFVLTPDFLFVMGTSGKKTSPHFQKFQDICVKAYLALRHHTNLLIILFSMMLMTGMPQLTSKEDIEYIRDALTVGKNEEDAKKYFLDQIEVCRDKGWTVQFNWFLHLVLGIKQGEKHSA

Compound | IC50 (Human mTOR (FLAG-TOR)) [nM] | IC50 [1] [nM] | IC50 (PI3K-α) [nM] | IC50 (PI3K-γ) [µM] | IC50 (PI3K-γ; read-out: IC50 PI3Kγ) [µM]
CC(C)N(C)c1nc(-c2ccc(NC(=O)Nc3ccc(CN(C)C)cc3)cc2)nc(N2C3CCC2COC3)n1 [Example 390, 1-(4-(4-(3-oxa-8-azabicyclo[3.2.1]octan-8-yl)-6-(isopropyl(methyl)amino)-1,3,5-triazin-2-yl)phenyl)-3-(4-((dimethylamino)methyl)phenyl)urea] | 12 | 650 | 2470 |  | 2.35
CC(C)N(C)c1nc(-c2ccc(NC(=O)Nc3ccc(OCCN(C)C)cc3)cc2)nc(N2C3CCC2COC3)n1 [Example 391, 1-(4-(4-(3-oxa-8-azabicyclo[3.2.1]octan-8-yl)-6-(isopropyl(methyl)amino)-1,3,5-triazin-2-yl)phenyl)-3-(4-(2-(dimethylamino)ethoxy)phenyl)urea] | 9.6 | 300 | 2400 |  | 4
O=C(Nc1ccc(-c2nc(N3CCSCC3)nc(N3C4CCC3COC4)n2)cc1)Nc1cccnc1 [Example 392, 1-(4-(4-(3-oxa-8-azabicyclo[3.2.1]octan-8-yl)-6-thiomorpholino-1,3,5-triazin-2-yl)phenyl)-3-(pyridin-3-yl)urea] | 5.5 | 480 | 1180 |  | 2.78
O=C(Nc1ccncc1)Nc1ccc(-c2nc(N3CCSCC3)nc(N3C4CCC3COC4)n2)cc1 [Example 393, 1-(4-(4-(3-oxa-8-azabicyclo[3.2.1]octan-8-yl)-6-thiomorpholino-1,3,5-triazin-2-yl)phenyl)-3-(pyridin-4-yl)urea] | 3.6 | 580 | 444 |  | 1.54
CN(C)Cc1ccc(NC(=O)Nc2ccc(-c3nc(N4CCSCC4)nc(N4C5CCC4COC5)n3)cc2)cc1 [Example 395, 1-(4-(4-(3-oxa-8-azabicyclo[3.2.1]octan-8-yl)-6-thiomorpholino-1,3,5-triazin-2-yl)phenyl)-3-(4-((dimethylamino)methyl)phenyl)urea] | 14 | 590 | 584 |  | 2.22
C[C@@H]1COCCN1c1nc(-c2ccc(NC(=O)Nc3cccnc3)cc2)nc(N2CCOC[C@H]2C)n1 [Example 398, 1-(4-(4,6-bis((R)-3-methylmorpholino)-1,3,5-triazin-2-yl)phenyl)-3-(pyridin-3-yl)urea] | 0.21 | 12 | 644 |  | 3.91
C[C@@H]1COCCN1c1nc(-c2ccc(NC(=O)Nc3ccc(N4CCN(C)CC4)cc3)cc2)nc(N2CCOC[C@H]2C)n1 [Example 399, 1-(4-(4,6-bis((R)-3-methylmorpholino)-1,3,5-triazin-2-yl)phenyl)-3-(4-(4-methylpiperazin-1-yl)phenyl)urea] | 1.1 | 3 | 330 |  | 1.69
C[C@@H]1COCCN1c1nc(-c2ccc(NC(=O)Nc3ccc(CN(C)C)cc3)cc2)nc(N2CCOC[C@H]2C)n1 [Example 401, 1-(4-(4,6-bis((R)-3-methylmorpholino)-1,3,5-triazin-2-yl)phenyl)-3-(4-((dimethylamino)methyl)phenyl)urea] | 2 | 21 | 413 |  | 3.25
C[C@@H]1COCCN1c1nc(-c2ccc(NC(=O)Nc3ccc(OCCN(C)C)cc3)cc2)nc(N2CCOC[C@H]2C)n1 [Example 402, 1-(4-(4,6-bis((R)-3-methylmorpholino)-1,3,5-triazin-2-yl)phenyl)-3-(4-(2-(dimethylamino)ethoxy)phenyl)urea] | 1.8 | 7 | 543 |  | 3.64
O=C(Nc1ccncc1)Nc1ccc(-c2nc(C3=CCOCC3)nc(N3C4CCC3COC4)n2)cc1 [Example 404, 1-(4-(4-(3-oxa-8-azabicyclo[3.2.1]octan-8-yl)-6-(3,6-dihydro-2H-pyran-4-yl)-1,3,5-triazin-2-yl)phenyl)-3-(pyridin-4-yl)urea] | 0.69 | 60 | 63 |  | 0.433
O=C(Nc1ccncc1)Nc1ccc(-c2nc(C3CCOCC3)nc(N3C4CCC3COC4)n2)cc1 [Example 406, 1-(4-(4-(3-oxa-8-azabicyclo[3.2.1]octan-8-yl)-6-(tetrahydro-2H-pyran-4-yl)-1,3,5-triazin-2-yl)phenyl)-3-(pyridin-4-yl)urea] | 0.38 | 2.4 | 478 |  | 1.88
CN(C)Cc1ccc(NC(=O)Nc2ccc(-c3nc(C4CCOCC4)nc(N4C5CCC4COC5)n3)cc2)cc1 [Example 409, 1-(4-(4-(3-oxa-8-azabicyclo[3.2.1]octan-8-yl)-6-(tetrahydro-2H-pyran-4-yl)-1,3,5-triazin-2-yl)phenyl)-3-(4-((dimethylamino)methyl)phenyl)urea] | 1.5 | 50 | 856 |  | 4.49
C[C@@H]1COCCN1c1nc(-c2ccc(NC(=O)Nc3cccnc3)cc2)nc(N2C3CCC2COC3)n1 [Example 415, 1-(4-(4-(3-oxa-8-azabicyclo[3.2.1]octan-8-yl)-6-((R)-3-methylmorpholino)-1,3,5-triazin-2-yl)phenyl)-3-(pyridin-3-yl)urea] | 0.38 | 29 | 787 |  | 3.26
C[C@@H]1COCCN1c1nc(-c2ccc(NC(=O)Nc3ccncc3)cc2)nc(N2C3CCC2COC3)n1 [Example 416, 1-(4-(4-(3-oxa-8-azabicyclo[3.2.1]octan-8-yl)-6-((R)-3-methylmorpholino)-1,3,5-triazin-2-yl)phenyl)-3-(pyridin-4-yl)urea] | 0.55 | 12 | 446 |  | 2.5
C[C@@H]1COCCN1c1nc(-c2ccc(NC(=O)Nc3ccc(CN4CCCC4)cc3)cc2)nc(N2C3CCC2COC3)n1 [Example 418, 1-(4-(4-(3-oxa-8-azabicyclo[3.2.1]octan-8-yl)-6-((R)-3-methylmorpholino)-1,3,5-triazin-2-yl)phenyl)-3-(4-(pyrrolidin-1-ylmethyl)phenyl)urea] | 1.5 | 40 | 520 |  | 3.48

Continued, in another order:

IC50 (Human mTOR (FLAG-TOR)) [nM] | IC50 [1] [nM] | IC50 (PI3K-α) [nM] | IC50 (PI3K-γ) [µM] | Compound | IC50 (PI3K-γ; read-out: IC50 PI3Kγ) [µM]
0.75 | 8 | 314 |  | C[C@@H]1COCCN1c1nc(-c2ccc(NC(=O)Nc3ccc(OCCN4CCCC4)cc3)cc2)nc(N2CCOC[C@H]2C)n1 [Example 403, 1-(4-(4,6-bis((R)-3-methylmorpholino)-1,3,5-triazin-2-yl)phenyl)-3-(4-(2-(pyrrolidin-1-yl)ethoxy)phenyl)urea] | 2.38
2.3 | 110 | 826 |  | C[C@@H]1COCCN1c1nc(-c2ccc(NC(=O)Nc3ccncc3)cc2)nc(N2C[C@@H]3C[C@H]2CO3)n1 [Example 410, 1-(4-(4-((1S,4S)-2-oxa-5-azabicyclo[2.2.1]heptan-5-yl)-6-((R)-3-methylmorpholino)-1,3,5-triazin-2-yl)phenyl)-3-(pyridin-4-yl)urea] | 5.68
3.6 | 250 | 1900 | > 10 | C[C@@H]1COCCN1c1nc(-c2ccc(NC(=O)Nc3cccnc3)cc2)nc(N2C[C@@H]3C[C@H]2CO3)n1 [Example 411, 1-(4-(4-((1S,4S)-2-oxa-5-azabicyclo[2.2.1]heptan-5-yl)-6-((R)-3-methylmorpholino)-1,3,5-triazin-2-yl)phenyl)-3-(pyridin-3-yl)urea] | 
7.3 | 25 | 1230 |  | C[C@@H]1COCCN1c1nc(-c2ccc(NC(=O)Nc3ccc(N4CCN(C)CC4)cc3)cc2)nc(N2C[C@@H]3C[C@H]2CO3)n1 [Example 412, 1-(4-(4-((1S,4S)-2-oxa-5-azabicyclo[2.2.1]heptan-5-yl)-6-((R)-3-methylmorpholino)-1,3,5-triazin-2-yl)phenyl)-3-(4-(4-methylpiperazin-1-yl)phenyl)urea] | 7.48
9.2 | 150 | 1520 | > 10 | C[C@@H]1COCCN1c1nc(-c2ccc(NC(=O)Nc3ccc(CN4CCN(C)CC4)cc3)cc2)nc(N2C[C@@H]3C[C@H]2CO3)n1 [Example 413, 1-(4-(4-((1S,4S)-2-oxa-5-azabicyclo[2.2.1]heptan-5-yl)-6-((R)-3-methylmorpholino)-1,3,5-triazin-2-yl)phenyl)-3-(4-((4-methylpiperazin-1-yl)methyl)phenyl)urea] | 
6.9 | 120 | 969 |  | C[C@@H]1COCCN1c1nc(-c2ccc(NC(=O)Nc3ccc(CN4CCCC4)cc3)cc2)nc(N2C[C@@H]3C[C@H]2CO3)n1 [Example 414, 1-(4-(4-((1S,4S)-2-oxa-5-azabicyclo[2.2.1]heptan-5-yl)-6-((R)-3-methylmorpholino)-1,3,5-triazin-2-yl)phenyl)-3-(4-(pyrrolidin-1-ylmethyl)phenyl)urea] | 5.45
0.72 | 1 | 414 |  | C[C@@H]1COCCN1c1nc(-c2ccc(NC(=O)Nc3ccc(N4CCN(C)CC4)cc3)cc2)nc(C2CCOCC2)n1 [Example 421, (R)-1-(4-(4-(3-methylmorpholino)-6-(tetrahydro-2H-pyran-4-yl)-1,3,5-triazin-2-yl)phenyl)-3-(4-(4-methylpiperazin-1-yl)phenyl)urea] | 1.57
0.79 | 2 | 269 |  | C[C@@H]1COCCN1c1nc(-c2ccc(NC(=O)Nc3ccc(N4CCNCC4)cc3)cc2)nc(C2CCOCC2)n1 [Example 422, (R)-1-(4-(4-(3-methylmorpholino)-6-(tetrahydro-2H-pyran-4-yl)-1,3,5-triazin-2-yl)phenyl)-3-(4-(piperazin-1-yl)phenyl)urea] | 1.22

From US20090304692A1, “TRIAZINE COMPOUNDS AS PI3 KINASE AND MTOR INHIBITORS” (Wyeth, priority 2008, published 2009)
